The values that follow come from patent US11878015B2, “Piperidine-substituted Mnk inhibitors and methods related thereto” (eFFECTOR Therapeutics Inc., priority 2017, dated 2024).

pIC50: −log10 of the molar value. Read-outs that look alike come from different tables or passages of the source.

The subject of data set [1] is Phosphorylated eIF4E. Put plainly: peIF4E signaling cellular assay (CisBio peIF4E HTRF). In kind it is cell-based. The following applies: 2 hrs incubation at 37° C., 12-point curve 20 μM to 0.1 nM; read-out: pEI4IE signaling activity. As for the experimental part:
Phosphorylated eIF4E is assayed using the CisBio peIF4E HTRF® assay kit (CisBio, catalogue No. 64EF4PEG). Cells are plated in 96-well tissue-culture treated plate in appropriate growth medium (90 μL). Compounds (10×) are diluted using 3-fold serial dilutions in cell culture medium and added to cells. Plates are incubated for 2 hrs at 37° C. The cell supernatant is carefully removed either by aspirating supernatant or by flicking the plate. Immediately 50 μL of supplemented lysis buffer (1×) is added and incubated for at least 30 minutes at room temperature under shaking. After homogenization by pipeting up and down, 16 μL of cell lysate is transferred from the 96-well cell-culture plate to a 384-well small volume white plate. 4 μL of premixed antibody solutions (vol/vol) is prepared in the detection buffer and added. The plate is covered with a plate sealer and incubated overnight at room temperature. The fluorescence emissions at two different wavelengths are read (665 nm and 620 nm) on a Wallac Victor2. Emission ratios are converted into percent inhibitions and imported into GraphPad Prism software. […] IC50 values are determined using a nonlinear regression model available in GraphPad Prism 5.
To this end, IC50 values of less than 0.001 μM are labelled as “+++”, from 0.001 to 0.01 μM are labelled as “++”, and greater than 0.01 μM are labelled as “+” (NA means “not available”).
(In general: TR-FRET usually uses a lanthanide donor and a delayed reading to cut background.)

The subject of data set [2] is PD-1. Put plainly: PD-1 (CD279) expression on PHA/PMA-activated Jurkat T cells, flow cytometry. In kind it is cell-based. As to conditions: Homo sapiens, percentage of inhibition of PD-1 positive cells at 10 μM, 48 hours. As for the experimental part: To examine the effect of MNK inhibitors on PD-1 expression, Jurkat cells (Clone E6.1, ATCC, transformed T cells) were used, which express PD-1 when activated through T cell receptor (TCR) signaling. Briefly, Jurkat cells were grown in 1×RPMI with 1×Pen/Strep, and 10% FBS, then about 3×10^6 Jurkat cells were activated in presence of 1 μg/mL PHA (Sigma) and 50 ng/mL PMA (Sigma). Test Cells were treated simultaneously with various concentrations of an MNK inhibitor (0, 0.01, 0.1, 1, 3 and 10 μM). After 48 hours, culture supernatants were harvested and examined via sandwich ELISA for the presence of IL-2 using human IL-2 ELISA DuoSet (R&D Systems, Minneapolis, Minn.). The level of PD-1 on Jurkat cells was examined by incubating with human FcR block, then contacted with allophycocyanin (APC) conjugated anti-PD-1 antibody (5 μl per 100 μl volume of test, Biolegend, San Diego, CA) for 25 minutes at 4° C., without washing the cells, fixable dead cell stain (1:10,000; BD Biosciences, San Jose, CA) was added and incubated further for 10 minutes at 4° C. Cells were washed two times with flow buffer, and finally cells were fixed with fixation buffer for 15 minutes at 4° C. After fixation, cells were washed twice with flow buffer and re-suspended in flow buffer and assessed for fluorescence using BD Accuri C6 flow cytometer. Data were analyzed using the C6 cytometer software (BD Biosciences, San Jose, CA) or Attune Nxt Cytometer (Invitrogen, Carlsbad, CA).
Activation of Jurkat T cells with PHA and PMA induced the expression of PD-1 on the cell surface of about 25-30% of the stimulated Jurkat cells as compared to uninduced cells (Unstim) and induced a 1,000-fold increase in IL-2 cytokine production, respectively. […] Lastly, MNK inhibition by various different MNK inhibitors had no effect on cell viability. […] To this end, percentage of inhibition of PD-1 positive cells (10 μM) of more than 50% are labelled as “+++”, from 10% to 50% are labelled as “++”, and less than 10% are labelled as “+” (NA means “not available”).

Data set [3] can be described thus: High throughput thermodynamic solubility procedure. The class given is physicochemical. As to conditions: for solubility in fasted state simulated gastric fluid (FaSSGF), in words: pH value of 1.6; for solubility at 18 h: thermodynamic from solid, 18 hours incubation, theoretical maximum 10 mM. On the procedure: In a 96-well plate, 10 mM DMSO stocks (50-100 uL) of each compound were dried under heated nitrogen flow using a SPE-96 plate dryer (upper flow rate=50 L/min, temperature=60° C., lower flow rate=20 L/min, temperature=80° C.). […] Compounds prepared as the free base were assessed in conditions with and without one equivalent of TFA added. The theoretical maximum concentrations of the aqueous solutions were 10 mM. Each well was capped and incubated for a period of 18 hours at room temperature or 37° C. Mixing of the solutions during the incubation period was performed by either shaking the plate at 750 rpm or adding StirStix (stainless steel capillaries) and agitating the mixture using a rotary magnetic tumble stirrer. After the incubation period, aliquots from each well were filtered. Solubility of all samples were quantified following comparison to standards of known concentration by HPLC-UV.

Setting [4] is: Fasted-State Simulated Intestinal Fluid (FaSSIF), pH 6.5, fassif, Fasted-State Simulated Intestinal Fluid, read-out: Aqueous Solubility FaSSIF (pH 6.5).
The mark [5] stands for this setting: deionized water, read-out: Aqueous Solubility DI H2O.

A word on the inhibition: it is the relative decrease from the control value, in per cent. The low end stands for little suppression, the high end for strong suppression. As usually defined, the solubility is the concentration that dissolves in the medium under given conditions.

As to `Cc1cc(Nc2ncnc(N)c2Cl)c(=O)n2c1C(=O)N[C@@]21CCCNC1` [Compound 3L], the pIC50 in data set [1] was 8.00 to 9.00. For the same molecule, the inhibition at 10 µM in data set [2] is more than 50%. Moreover, the “solubility in fasted state simulated gastric fluid (FaSSGF), in words” value (“solubility … in words” for short) in data set [3] is “excellent solubility”. Further, the solubility at 18 h in data set [3] (setting [4]) is 70 µM; in data set [3] (setting [5]), 3200 µM.

In the case of `Cc1cc(Nc2ncnc(N)c2C)c(=O)n2c1C(=O)NC21CNCCC1(C)C` (stereo not shown) [Compound 3T], the pIC50 in data set [1] was less than 8.00. In data set [2], the inhibition at 10 µM lay in the range of 10 to 50%. The solubility at 18 h in data set [3] (setting [4]) is 500 µM; in data set [3] (setting [5]) it was 10000 µM.

With `Cc1cc(Nc2ncnc(N)c2Cl)c(=O)n2c1C(=O)NC21CCN(CCF)CC1` [Compound 3CC], in data set [1], the pIC50 was 8.00 to 9.00. This molecule also showed an inhibition at 10 µM in data set [2] of 10 to 50%. For the same molecule, the results for the solubility at 18 h in data set [3] (setting [4]) and in data set [3] (setting [5]) were 40 µM and 770 µM, respectively.

For `Cc1cc(Nc2ncnc(N)c2C)c(=O)n2c1C(=O)NC21CCCN(C)C1` (racemic) [rac-1F, 6-((6-amino-5-methylpyrimidin-4-yl)amino)-1′,8-dimethyl-2H-spiro[imidazo[1,5-a]pyridine-3,3′-piperidine]-1,5-dione], the pIC50 in data set [1] was 8.00 to 9.00. Also, in data set [2], the inhibition at 10 µM was in the range of 10 to 50%. Also, the “solubility … in words” value in data set [3] is on record as “excellent solubility”. In addition, the solubility at 18 h is 240 µM in data set [3] (setting [4]) and 4300 µM in data set [3] (setting [5]).

In the case of `Cc1cc(Nc2ncnc(N)c2C#N)c(=O)n2c1C(=O)NC21CCCN(C)C1` (racemic) [rac-2F], the pIC50 in data set [1] was 8.00 to 9.00. This molecule registered an inhibition at 10 µM in data set [2] of 10 to 50%. For the same molecule, in data set [3], the “solubility … in words” value is “excellent solubility”. Besides, the solubility at 18 h in data set [3] (setting [4]) is 79 µg/mL.

Regarding `Cc1cc(Nc2ncnc(N)c2Cl)c(=O)n2c1C(=O)NC21CNCCC1(C)C` (stereo not shown) [Compound 3S], the pIC50 in data set [1] was 8.00 to 9.00. For the same molecule, in data set [2], the inhibition at 10 µM is more than 50%. The solubility at 18 h in data set [3] (setting [4]) is 600 µM; in data set [3] (setting [5]) it was 4200 µM.

Consider `Cc1cc(Nc2ncnc(N)c2C)c(=O)n2c1C(=O)N[C@@]21CCCN(C)C1` (stereo in doubt) [Compound 1Fb, (S)-6-((6-amino-5-methylpyrimidin-4-yl)amino)-1′,8-dimethyl-2H-spiro[imidazo[1,5-a]pyridine-3,3′-piperidine]-1,5-dione], for which the pIC50 in data set [1] was 8.00 to 9.00. Moreover, the inhibition at 10 µM in data set [2] fell in the range of 10 to 50%. For the same molecule, in data set [3], the “solubility … in words” value is listed as “excellent solubility”. Also, the solubility at 18 h in data set [3] (setting [4]) was 88 µg/mL; in data set [3] (setting [5]), more than 1850 µg/mL.

As to `Cc1cc(Nc2ncnc(N)c2C)c(=O)n2c1C(=O)NC21CCN(CC2(F)CC2)CC1` [Compound 3HH], in data set [1], the pIC50 is 8.00 to 9.00. Further, in data set [2], the inhibition at 10 µM was less than 10%. Moreover, in data set [3] (setting [4]), the solubility at 18 h was 18 µM.
